The record followed here is patent US12286455B2, “Anthelmintic depsipeptide compounds” (BOEHRINGER INGELHEIM ANIMAL HEALTH USA INC., priority 2015, dated 2025).

A word on the EC50: it is the concentration at which the effect is half-maximal. In general, MIC90 refers to the lowest concentration that inhibits either 90% of growth or 90% of the strains tested, depending on the study.

The conditions of data set [1]: amide bond, 24-membered ring, BOP-Cl/DIEA.
For data set [2], the system named is Microfilaria of Dirofilaria immitis. The data set is described as follows: Method B: survival of microfilaria of Dirofilaria immitis in microtitre plate. Conditions: 72 h, read-out: median EC50, survival of microfilaria at 72 hours.
The subject of the next data set is Haemonchus contortus. Put plainly: Method A: development of L1 Haemonchus contortus larvae in microtitre plate. Conditions: 96 h; for EC50: read-out: median EC50.
For data set [3] the following is noted: the molecule shown is the open-chain precursor; amide bond; 24-membered ring; BOP-Cl/DIEA; DCM; 58.9 mM.

Values after ≈ are worked out from the molar mass of the structure shown. Like-named read-outs stand apart in the source and are kept apart here.

Protocol for Haemonchus contortus: Twenty L1 Haemonchus contortus larvae were added to wells of a microtitre plate containing a nutrient medium and the test compound in DMSO. An analysis was conducted at 4 days to determine the extent of development of the larvae. Larvae exposed to DMSO alone served as controls. The potencies of the compounds were evaluated in an MIC90 and/or EC50 format.

`CC(C)C[C@H]1C(=O)O[C@H](C)C(=O)N(C)[C@@H](CC(C)(C)F)C(=O)O[C@H](Cc2ccc(C(F)(F)F)cc2)C(=O)N(C)[C@@H](CC(C)C)C(=O)O[C@H](C)C(=O)N(C)[C@@H](CC(C)(C)F)C(=O)O[C@H](Cc2ccc(C(F)(F)F)cc2)C(=O)N1C` [Compound 4-18] came in with a ring closure, yield after HPLC in data set [1] (from H-MeLeu(4-F)-dPhLac(4-CF3)-MeLeu-dLac-MeLeu(4-F)-dPhLac(4-CF3)-MeLeu-dLac-OH?, DCM, 5.2 mM, 25.0 °C) of 34%. Besides, the 50% effective concentration (EC50) was < 100 nM in data set [2] and 100 to 1000 nM with Haemonchus contortus.
For the compound `C[C@H]1OC(=O)[C@H](CC(C)(C)C)N(C)C(=O)[C@@H](Cc2ccc(OC(F)(F)F)cc2)OC(=O)[C@H](CC(C)(C)F)N(C)C(=O)[C@@H](C)OC(=O)[C@H](CC(C)(C)C)N(C)C(=O)[C@@H](Cc2ccc(OC(F)(F)F)cc2)OC(=O)[C@H](CC(C)(C)F)N(C)C1=O` [Compound 5-32], the ring closure, yield after HPLC in data set [1] (from H-MeLeu(4-F)-dPhLac(4-OCF3)-MeLeu(4-Me)-dLac-MeLeu(4-F)-dPhLac(4-OCF3)-MeLeu(4-Me)-dLac-OH, DCM, 4.17 mM) is 59%. Besides, the 50% effective concentration (EC50) (in data set [2]; in the data set on Haemonchus contortus) was 100 to 1000 nM throughout.
The compound `CC(C)C[C@H]1C(=O)O[C@H](C)C(=O)N(C)[C@@H](CC(C)(C)F)C(=O)O[C@H](Cc2ccc(N3CCOCC3)cc2)C(=O)N(C)[C@@H](CC(C)C)C(=O)O[C@H](C)C(=O)N(C)[C@@H](CC(C)(C)F)C(=O)O[C@H](Cc2ccc(N3CCOCC3)cc2)C(=O)N1C` [Compound 6-18] returned a ring closure, yield after HPLC in data set [1] (from H-MeLeu(4-F)-dPhLac(4-morpholinyl)-MeLeu-dLac-MeLeu(4-F)-dPhLac(4-morpholinyl)-MeLeu-dLac-OH?, DCM, 1.7 mM, 25.0 °C) of 23%. In the data set with Haemonchus contortus, the EC50 was 100 to 1000 nM.
In data set [1] (from H-MeLeu(4-F)-dPhLac(4-(oxan-4-yl))-MeLeu-dLac-MeLeu(4-F)-dPhLac(4-(oxan-4-yl))-MeLeu-dLac-OH, DCM, 10.75 mM, 0.0 °C), `CC(C)C[C@H]1C(=O)O[C@H](C)C(=O)N(C)[C@@H](CC(C)(C)F)C(=O)O[C@H](Cc2ccc(C3CCOCC3)cc2)C(=O)N(C)[C@@H](CC(C)C)C(=O)O[C@H](C)C(=O)N(C)[C@@H](CC(C)(C)F)C(=O)O[C@H](Cc2ccc(C3CCOCC3)cc2)C(=O)N1C` [Compound 7-18] returned a ring closure, yield after HPLC of 60%. In addition, the EC50 was < 100 nM in data set [2] and 1000 to 10000 nM in the data set with Haemonchus contortus.
In turn, `CC(C)C[C@H]1C(=O)O[C@H](Cc2ccc(C3CCOCC3)cc2)C(=O)N(C)[C@@H](CC(C)C)C(=O)O[C@H](C)C(=O)N(C)[C@@H](CC(C)C)C(=O)O[C@H](Cc2ccc(C3CCOCC3)cc2)C(=O)N(C)[C@@H](CC(C)C)C(=O)O[C@H](C)C(=O)N1C` [Compound 7-27] registered a ring closure, yield after HPLC in data set [1] (from H-MeLeu-dPhLac(4-oxan-4-yl)-MeLeu-dLac-MeLeu-dPhLac(4-oxan-4-yl)-MeLeu-dLac-OH?, 25.0 °C) of 13%. Also, the EC50 in data set [2] is < 100 nM; with Haemonchus contortus, 1000 to 10000 nM.
For the compound `C[C@H]1OC(=O)[C@H](CC(C)(C)C)N(C)C(=O)[C@@H](Cc2ccc(C3CCOCC3)cc2)OC(=O)[C@H](CC(C)(C)F)N(C)C(=O)[C@@H](C)OC(=O)[C@H](CC(C)(C)C)N(C)C(=O)[C@@H](Cc2ccc(C3CCOCC3)cc2)OC(=O)[C@H](CC(C)(C)F)N(C)C1=O` [Compound 7-32], the ring closure, yield after HPLC in data set [1] (from H-MeLeu(4-F)-dPhLac(4-(oxan-4-yl))-MeLeu(4-Me)-dLac-MeLeu(4-F)-dPhLac(4-(oxan-4-yl))-MeLeu(4-Me)-dLac-OH, DCM, 25.0 mM) worked out at 61%. Further, the EC50 (in data set [2]; in the data set on Haemonchus contortus) was < 100 nM throughout.
As to `CC(C)C[C@H]1C(=O)O[C@H](Cc2ccc(C(C)(C)C)cc2)C(=O)N(C)[C@@H](CC(C)(C)F)C(=O)O[C@H](C)C(=O)N(C)[C@@H](CC(C)C)C(=O)O[C@H](Cc2ccc(C(C)(C)C)cc2)C(=O)N(C)[C@@H](CC(C)(C)F)C(=O)O[C@H](C)C(=O)N1C` [Compound 18-19], in data set [1] (from H-MeLeu-dPhLac(4-tBu)-MeLeu(4-F)-dLac-MeLeu-dPhLac(4-tBu)-MeLeu(4-F)-dLac-OH, DCM, 0.9 mM), the ring closure, yield after HPLC amounted to 13%. For the same compound, in data set [2], the EC50 is < 100 nM. The MIC90 in the data set with Haemonchus contortus (read-out: median MIC90) lay in the range of 1 to 10 µM (≈ 1.1 to 11 µg/mL).
“H-MeLeu(4-F)-dPhLac(4-tBu)-MeLeu(4-Me)-dLac-MeLeu(4-F)-dPhLac(4-tBu)-MeLeu(4-Me)-dLac-OH” showed a ring closure, isolated yield in data set [3] of 55%.
